# Legend:
# Assay in all cases: relative viability (nuclei count vs DMSO), 5 days (fraction); higher = more cells survive
# NCI-H1734 = test system: NCI-H1734
# Method in brief: (§1)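 For relative viability, nuclei counts in treated wells were divided by those in vehicle wells. Lung cancer cell lines had been pin-tool dosed in 1536-well plates the day after seeding and cultured for 5 days, then fixed and stained in one step (final 0.05% Triton X-100, 1% formaldehyde, 1 ug/ml Hoechst) and imaged at 4×. Doses were one drug alone or a fixed anchor-drug dose plus five library-drug doses (not always all listed) in √10 steps, and values are duplicate-plate medians.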
# A549 = test system: A549
# Method in brief: as §1
# IA-LM = test system: IA-LM
# Method in brief: as §1
# NCI-H2009 = test system: NCI-H2009
# Method in brief: as §1
# LK-2 = test system: LK-2
# Method in brief: as §1
# NCI-H1650 = test system: NCI-H1650
# Method in brief: as §1
# EBC-1 = test system: EBC-1
# Method in brief: as §1
# NCI-H1648 = test system: NCI-H1648
# Method in brief: as §1
# A-427 = test system: A-427
# Method in brief: as §1
# NCI-H1703 = test system: NCI-H1703
# Method in brief: as §1
# UMC-11 = test system: UMC-11
# Method in brief: as §1
# CAL-12T = test system: CAL-12T
# Method in brief: as §1
# NCI-H1299 = test system: NCI-H1299
# Method in brief: as §1
# Calu-6 = test system: Calu-6
# Method in brief: as §1
compound,measurement,setting,value
CC(=O)O[C@@]12CO[C@@H]1C[C@H](O)[C@@]1(C)C(=O)[C@H](O)C3=C(C)[C@@H](OC(=O)[C@H](O)[C@@H](NC(=O)OC(C)(C)C)c4ccccc4)C[C@@](O)([C@@H](OC(=O)c4ccccc4)[C@H]21)C3(C)C [Docetaxel] + O=C(c1cc(Cc2n[nH]c(=O)c3ccccc23)ccc1F)N1CCN(C(=O)C2CC2)CC1 [Olaparib] (partner 8 µM),relative viability,NCI-H1734; first compound 0.0002 µM,0.498
same,relative viability,NCI-H1734; first compound 0.000632 µM,0.506
same,relative viability,NCI-H1734; first compound 0.002 µM,0.292
same,relative viability,NCI-H1734; first compound 0.006325 µM,0.324
same,relative viability,NCI-H1734; first compound 0.02 µM,0.196
same,relative viability,A549; first compound 0.0002 µM,0.341
same,relative viability,A549; first compound 0.000632 µM,0.0796
same,relative viability,A549; first compound 0.002 µM,0.0511
same,relative viability,A549; first compound 0.006325 µM,0.0681
same,relative viability,A549; first compound 0.02 µM,0.0279
same,relative viability,IA-LM; first compound 0.0002 µM,0.687
same,relative viability,IA-LM; first compound 0.000632 µM,0.326
same,relative viability,IA-LM; first compound 0.002 µM,0.153
same,relative viability,IA-LM; first compound 0.006325 µM,0.0861
same,relative viability,IA-LM; first compound 0.02 µM,0.074
same,relative viability,NCI-H2009; first compound 0.0002 µM,0.606
same,relative viability,NCI-H2009; first compound 0.000632 µM,0.79
same,relative viability,NCI-H2009; first compound 0.002 µM,0.562
same,relative viability,NCI-H2009; first compound 0.006325 µM,0.397
same,relative viability,NCI-H2009; first compound 0.02 µM,0.149
same,relative viability,LK-2; first compound 0.0002 µM,0.599
same,relative viability,LK-2; first compound 0.000632 µM,0.249
same,relative viability,LK-2; first compound 0.002 µM,0.156
same,relative viability,LK-2; first compound 0.006325 µM,0.118
same,relative viability,LK-2; first compound 0.02 µM,0.0792
same,relative viability,NCI-H1650; first compound 0.0002 µM,0.64
same,relative viability,NCI-H1650; first compound 0.000632 µM,0.545
same,relative viability,NCI-H1650; first compound 0.002 µM,0.218
same,relative viability,NCI-H1650; first compound 0.006325 µM,0.241
same,relative viability,NCI-H1650; first compound 0.02 µM,0.162
same,relative viability,EBC-1; first compound 0.0002 µM,0.579
same,relative viability,EBC-1; first compound 0.000632 µM,0.358
same,relative viability,EBC-1; first compound 0.002 µM,0.213
same,relative viability,EBC-1; first compound 0.006325 µM,0.217
same,relative viability,EBC-1; first compound 0.02 µM,0.162
same,relative viability,NCI-H1648; first compound 0.0002 µM,0.773
same,relative viability,NCI-H1648; first compound 0.000632 µM,0.563
same,relative viability,NCI-H1648; first compound 0.002 µM,0.338
same,relative viability,NCI-H1648; first compound 0.006325 µM,0.279
same,relative viability,NCI-H1648; first compound 0.02 µM,0.21
same,relative viability,A-427; first compound 0.0002 µM,0.662
same,relative viability,A-427; first compound 0.000632 µM,0.704
same,relative viability,A-427; first compound 0.002 µM,0.538
same,relative viability,A-427; first compound 0.006325 µM,0.292
same,relative viability,A-427; first compound 0.02 µM,0.198
same,relative viability,NCI-H1703; first compound 0.0002 µM,0.372
same,relative viability,NCI-H1703; first compound 0.000632 µM,0.538
same,relative viability,NCI-H1703; first compound 0.002 µM,0.204
same,relative viability,NCI-H1703; first compound 0.006325 µM,0.174
same,relative viability,NCI-H1703; first compound 0.02 µM,0.0787
same,relative viability,UMC-11; first compound 0.0002 µM,0.371
same,relative viability,UMC-11; first compound 0.000632 µM,0.352
same,relative viability,UMC-11; first compound 0.002 µM,0.221
same,relative viability,UMC-11; first compound 0.006325 µM,0.289
same,relative viability,UMC-11; first compound 0.02 µM,0.229
same,relative viability,CAL-12T; first compound 0.0002 µM,0.591
same,relative viability,CAL-12T; first compound 0.000632 µM,0.392
same,relative viability,CAL-12T; first compound 0.002 µM,0.253
same,relative viability,CAL-12T; first compound 0.006325 µM,0.263
same,relative viability,CAL-12T; first compound 0.02 µM,0.173
same,relative viability,NCI-H1299; first compound 0.0002 µM,0.95
same,relative viability,NCI-H1299; first compound 0.000632 µM,0.9
same,relative viability,NCI-H1299; first compound 0.002 µM,0.628
same,relative viability,NCI-H1299; first compound 0.006325 µM,0.351
same,relative viability,NCI-H1299; first compound 0.02 µM,0.241
same,relative viability,Calu-6; first compound 0.0002 µM,0.604
same,relative viability,Calu-6; first compound 0.000632 µM,0.454
same,relative viability,Calu-6; first compound 0.002 µM,0.243
same,relative viability,Calu-6; first compound 0.006325 µM,0.128
same,relative viability,Calu-6; first compound 0.02 µM,0.0895
Nc1ccn([C@@H]2O[C@H](CO)[C@@H](O)[C@@H]2O)c(=O)n1 [Cytarabine] + O=C(CCCCCCC(=O)Nc1ccccc1)NO [Vorinostat] (partner 1 µM),relative viability,NCI-H1734; first compound 0.005 µM,0.493
same,relative viability,NCI-H1734; first compound 0.01581 µM,0.361
same,relative viability,NCI-H1734; first compound 0.05 µM,0.317
same,relative viability,NCI-H1734; first compound 0.1581 µM,0.138
same,relative viability,NCI-H1734; first compound 0.5 µM,0.125
same,relative viability,IA-LM; first compound 0.005 µM,0.868
same,relative viability,IA-LM; first compound 0.01581 µM,1.03
same,relative viability,IA-LM; first compound 0.05 µM,1.07
same,relative viability,IA-LM; first compound 0.1581 µM,0.518
same,relative viability,IA-LM; first compound 0.5 µM,0.578
same,relative viability,NCI-H2009; first compound 0.005 µM,0.751
same,relative viability,NCI-H2009; first compound 0.01581 µM,0.698
same,relative viability,NCI-H2009; first compound 0.05 µM,0.71
same,relative viability,NCI-H2009; first compound 0.1581 µM,0.52
same,relative viability,NCI-H2009; first compound 0.5 µM,0.198
same,relative viability,LK-2; first compound 0.005 µM,0.244
same,relative viability,LK-2; first compound 0.01581 µM,0.29
same,relative viability,LK-2; first compound 0.05 µM,0.242
same,relative viability,LK-2; first compound 0.1581 µM,0.143
same,relative viability,LK-2; first compound 0.5 µM,0.119
same,relative viability,NCI-H1650; first compound 0.005 µM,0.563
same,relative viability,NCI-H1650; first compound 0.01581 µM,0.514
same,relative viability,NCI-H1650; first compound 0.05 µM,0.261
same,relative viability,NCI-H1650; first compound 0.1581 µM,0.241
same,relative viability,NCI-H1650; first compound 0.5 µM,0.226
same,relative viability,NCI-H1648; first compound 0.005 µM,0.4
same,relative viability,NCI-H1648; first compound 0.01581 µM,0.354
same,relative viability,NCI-H1648; first compound 0.05 µM,0.556
same,relative viability,NCI-H1648; first compound 0.1581 µM,0.408
same,relative viability,NCI-H1648; first compound 0.5 µM,0.357
same,relative viability,A-427; first compound 0.005 µM,0.758
same,relative viability,A-427; first compound 0.01581 µM,0.636
same,relative viability,A-427; first compound 0.05 µM,0.325
same,relative viability,A-427; first compound 0.1581 µM,0.339
same,relative viability,A-427; first compound 0.5 µM,0.306
same,relative viability,UMC-11; first compound 0.005 µM,0.285
same,relative viability,UMC-11; first compound 0.01581 µM,0.308
same,relative viability,UMC-11; first compound 0.05 µM,0.258
same,relative viability,UMC-11; first compound 0.1581 µM,0.19
same,relative viability,UMC-11; first compound 0.5 µM,0.183
same,relative viability,CAL-12T; first compound 0.005 µM,0.53
same,relative viability,CAL-12T; first compound 0.01581 µM,0.68
same,relative viability,CAL-12T; first compound 0.05 µM,0.739
same,relative viability,CAL-12T; first compound 0.1581 µM,0.477
same,relative viability,CAL-12T; first compound 0.5 µM,0.27
CC(=O)O[C@@]12CO[C@@H]1C[C@H](O)[C@@]1(C)C(=O)[C@H](O)C3=C(C)[C@@H](OC(=O)[C@H](O)[C@@H](NC(=O)OC(C)(C)C)c4ccccc4)C[C@@](O)([C@@H](OC(=O)c4ccccc4)[C@H]21)C3(C)C [Docetaxel] + NC(=O)Nc1cc(-c2cccc(F)c2)sc1C(=O)N[C@H]1CCCNC1 [AZD7762] (partner 0.2 µM),relative viability,NCI-H1734; first compound 0.0002 µM,0.449
same,relative viability,NCI-H1734; first compound 0.000632 µM,0.384
same,relative viability,NCI-H1734; first compound 0.002 µM,0.199
same,relative viability,NCI-H1734; first compound 0.006325 µM,0.222
same,relative viability,NCI-H1734; first compound 0.02 µM,0.164
same,relative viability,LK-2; first compound 0.0002 µM,0.337
same,relative viability,LK-2; first compound 0.000632 µM,0.277
same,relative viability,LK-2; first compound 0.002 µM,0.113
same,relative viability,LK-2; first compound 0.006325 µM,0.112
same,relative viability,LK-2; first compound 0.02 µM,0.0712
same,relative viability,NCI-H1648; first compound 0.0002 µM,0.589
same,relative viability,NCI-H1648; first compound 0.000632 µM,0.701
same,relative viability,NCI-H1648; first compound 0.002 µM,0.431
same,relative viability,NCI-H1648; first compound 0.006325 µM,0.248
same,relative viability,NCI-H1648; first compound 0.02 µM,0.217
same,relative viability,A-427; first compound 0.0002 µM,0.729
same,relative viability,A-427; first compound 0.000632 µM,0.768
same,relative viability,A-427; first compound 0.002 µM,0.461
same,relative viability,A-427; first compound 0.006325 µM,0.266
same,relative viability,A-427; first compound 0.02 µM,0.222
same,relative viability,NCI-H1703; first compound 0.000632 µM,0.121
same,relative viability,NCI-H1703; first compound 0.002 µM,0.107
same,relative viability,NCI-H1703; first compound 0.006325 µM,0.114
same,relative viability,NCI-H1703; first compound 0.02 µM,0.0729
same,relative viability,CAL-12T; first compound 0.0002 µM,0.595
same,relative viability,CAL-12T; first compound 0.000632 µM,0.452
same,relative viability,CAL-12T; first compound 0.002 µM,0.491
same,relative viability,CAL-12T; first compound 0.02 µM,0.176

# Reference: the supplement of paper PMC10307832
